# T1: TGF-β2 (Homo sapiens, UniProt P61812)
# T1 sequence (P61812 303-414 limits assumed): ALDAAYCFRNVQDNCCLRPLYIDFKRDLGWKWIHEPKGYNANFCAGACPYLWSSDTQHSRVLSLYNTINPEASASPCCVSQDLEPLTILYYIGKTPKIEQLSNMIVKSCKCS
# T2: TGF-β3 (Homo sapiens, UniProt P10600)
# T2 sequence (P10600 301-412 limits assumed): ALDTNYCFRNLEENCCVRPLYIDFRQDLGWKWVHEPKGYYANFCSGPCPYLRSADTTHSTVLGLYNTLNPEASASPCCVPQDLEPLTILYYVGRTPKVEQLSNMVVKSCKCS
# B1: TGF-β3 (ligand)
# chain: NCCVRPLYIDFRQDLGWKWVHEPKGYYANFCSGPCPYLRSADTTHSTVLGLYNTLNPEASASPCCVPQDLEPLTILYYVGRTPKVEQLSNMVVKSCKCS
# B2: native extract bovine FMOD: native extract bovine FMOD, comparator in ELISA (protein)
# chain: QYEEDSHWWFQFLRNQQSTYDDPYDPYPYEPYEPYPYGGEEGPAYAYGSPPQPEPRDCPQECDCPPNFPTAMYCDNRNLKYLPFVPSRMKYVYFQNNQISSIQEGVFDNATGLLWIALHGNQITSDKVGKKVFSKLRHLERLYLDHNNLTRIPSPLPRSLRELHLDHNQISRVPNNALEGLENLTALYLHHNEIQEVGSSMKGLRSLILLDLSYNHLRKVPDGLPSALEQLYLEHNNVFSVPDSYFRGSPKLLYVRLSHNSLTNNGLASNTFNSSSLLELDLSYNQLQKIPPVSTNLENLYLQGNRINEFSISSFCTVVDVMNFSKLQVLRLDGNEIKRSAMPADAPLCLRLASLIEI
# Experiments:
# TGF-β2 = target: T1, TGF-β2; assay: TGF-β2 binding to biotinylated FMOD/FMOD peptides on avidin resin; non-bound TGF-β read by Mv1Lu growth inhibition (MTT); settings: ratios 1:1, 10:1, 100:1, 1000:1 to TGF-β; FIG. 14
# Method: (§1) FMOD (whole protein) (SEQ ID NO:1), FMOD peptides and control protein BSA were biotinylated. While, the biotinylated proteins and peptides were bound to commercial available Piece Monomeric Avidin UltraLink Resin (Piece). The amounts of each test peptides/proteins are 1:1, 10:1, 100:1 and 1000:1 to TGF-βs, respectively. After washing out the non-bound residues, appropriate amount TGF-βs (based on the primary test assay) were added to the resin at 4° C. After overnight binding, non-bound TGF-βs were collected, followed by filter sterilization. Then, the TGF-βs residue were diluted 100 times in DEME-0.5% FBS to ensure the concentration was located in the linear region of TGF-βs on Mv1Lu proliferate inhibition.
# (§2) Diluted TGF-βs was added to overnight serum-starved Mv1Lu, and fresh TGF-βs media were added for another 24 hour before MTT assay. Samples with no TGF-βs added were employed as controls.
# TGF-β1 [1] = target: T3, TGF-β1 (Homo sapiens, UniProt P01137); assay: TGF-β1 binding to biotinylated FMOD/FMOD peptides on avidin resin; non-bound TGF-β read by Mv1Lu growth inhibition (MTT); settings: ratios 1:1, 10:1, 100:1, 1000:1 to TGF-β; overnight 4° C.; FIG. 13
# Method: as §1, §2
# TGF-β3 = target: T2, TGF-β3; assay: TGF-β3 binding to biotinylated FMOD/FMOD peptides on avidin resin; non-bound TGF-β read by Mv1Lu growth inhibition (MTT); settings: ratios 1:1, 10:1, 100:1, 1000:1 to TGF-β; FIG. 15
# Method: as §1, §2
# [2] = test system: α-smooth muscle actin (α-SMA) expression; assay: α-SMA expression staining; assay type: cell-based; settings: mono-treatment (200 nM FMOD or 100 pM TGF-β1); FIGS. 25B, 25C
# Method: Exemplary tests on effects of FMOD and TGF-β or FMOD peptides and TGF-β on α-SMA expression were performed and shown in FIGS. 25A-25D. Expression levels of α-SMA, which is a marker for the transition of fibroblasts to myofibroblasts, were measured and presented in staining in these figures.
# Rat-2 cells [3] = assay: H&E morphology of Rat-2 cells; assay type: cell-based
# Method: Exemplary tests were performed to better delineate cell morphology.
# [4] = test system: connective tissue growth factor (CTGF) expression; assay: CTGF expression and cell aggregation in Rat-2 cells, confocal staining; assay type: cell-based
# Method: Results of exemplary tests on each of FMOD and FMOD-P, alone or in combination with TGF-β on CTGF expression are shown in FIGS. 28A-28D. In these tests, 4,000 cells/well passage 18 Rat-2 cells were seeded in 8-well chamber slices in DMEM medium with 10% FBS. After 6 h adhesion, fresh DMEM medium with 0.5% FBS was employed for overnight serum starvation and then treatment media added. Treatment media were changed after 24 h. Cells were fixed and staining at 48 h. Photos were captured at 630× magnifications using a confocal microscope. In these figures, the cells were stained for CTGF (connective tissue growth factor, a factor involved in cell proliferation, migration and matrix production) or DAPI (4′,6-diamidino-2-phenylindole a fluorescent stain that binds strongly to DNA-used for nuclear staining). Merged images showing both CTGF and DAPI staining are also shown.
# Rat-2 cells [5] = assay: Rat-2 cell migration/invasion in Matrigel, DAPI nuclear staining; assay type: cell-based; settings: alone (200 nM FMOD or peptide, or 100 pM TGF-β), 24 hour treatment
# Method: Cell migration/invasion in Matrigel was documented at 200× magnificent after 24 hour treatment and quantitated using DAPI nuclear staining (results shown in FIG. 19A and repeat results in FIGS. 26B and 26C; DAPI pictures are shown in FIG. 19D).
# (§3) Similar to FMOD (whole protein), the effect of FMOD peptides and/or TGF-β on cell migration was also evaluated by scratching method (FIGS. 18C and 25D). At the same time, cell migration/invasion in Matrigel was documented at 100× magnificent after 24 hour treatment and quantitated using DAPI nuclear staining (100 rather than 200× magnification was used because one group's invasion is quite low) (see the results in FIG. 20A and DAPI pictures in FIG. 20B). Passage 18 Rat-2 cells (20,000 cells/well) were used for the test under the treatment of 100 pM TGF-β1 (SEQ ID NO:64)/133 (SEQ ID NO:66) with/without 200 nM FMOD-F07-40C in DMEM-0.5% FBS.
# Passage 18 Rat-2 cells (20,000 cells/well) were used for the test under the treatment of 100 pM TGF-β1/β3 with/without 200 nM FMOD-F06-40C in DMEM-0.5% FBS (FIG. 20C).
# [6] = target: T4, Bovine serum albumin (BSA) (bovine, UniProt P02769 25-607); assay: biotinylated protein on avidin resin, unbound TGF-β read by Mv1Lu growth inhibition (MTT)
# T4 construct: also called control BSA; control protein BSA
# Method: as §1, §2
# Rat-2 cells [7] = assay: Rat-2 cell migration by scratching method; assay type: cell-based; settings: alone (200 nM FMOD or 100 pM TGF-β), 24 hours
# Method: 1×10^6 cell/well Rat-2 cells were seeded in 6-well plated with 3 ml DMEM-10% FBS. After 6 hours for adhesion, fresh DMEM-0.5% FBS medium was changed for serum-starving overnight. After pre-warmed DMEM rinsing, four wounds (each 1 mm wide; two horizontal and two vertical) were scratched employing a 1-ml tip for each treatment group. Cells were rinsed by DMEM for three times, followed by incubation with treatment medium [DMEM-0.5 FBS containing 100 pM (2.5 ng/ml) TGF-β1 (SEQ ID NO:64) or -β3 (SEQ ID NO:66) w/o 200 nM (11.2 μg/ml) FMOD (SEQ ID NO:1)] for 24 hours. Photos were captured at both 0-h and 24-h after the scratching. The unclosed distance was measured and quantified as an average gap (A) and migration index (B). Similar results were reproduced in four independent experiments. The scale bar in (A) equal to 100 The asterisks in (B) present P<0.05.
# as §3
# TGF-β1 [8] = target: T3, TGF-β1; assay: ELISA analysis of binding with TGF-β1; settings: BSA as negative control; FIG. 3
# Excerpt: Bovine serum albumin (BSA) was used as negative control.
# SUMO-CAT from the recombinant bacteria harboring control plasmid pET_SUMO/CAT was used as negative control. To the knowledge of inventors, the TGF-binding sites within FMOD have not been reported.
# T3 sequence (P01137 279-390 limits assumed): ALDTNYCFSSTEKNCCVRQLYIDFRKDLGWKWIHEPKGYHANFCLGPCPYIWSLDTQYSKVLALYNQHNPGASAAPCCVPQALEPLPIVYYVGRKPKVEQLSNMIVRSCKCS
# T4 sequence (P02769 25-607 limits assumed): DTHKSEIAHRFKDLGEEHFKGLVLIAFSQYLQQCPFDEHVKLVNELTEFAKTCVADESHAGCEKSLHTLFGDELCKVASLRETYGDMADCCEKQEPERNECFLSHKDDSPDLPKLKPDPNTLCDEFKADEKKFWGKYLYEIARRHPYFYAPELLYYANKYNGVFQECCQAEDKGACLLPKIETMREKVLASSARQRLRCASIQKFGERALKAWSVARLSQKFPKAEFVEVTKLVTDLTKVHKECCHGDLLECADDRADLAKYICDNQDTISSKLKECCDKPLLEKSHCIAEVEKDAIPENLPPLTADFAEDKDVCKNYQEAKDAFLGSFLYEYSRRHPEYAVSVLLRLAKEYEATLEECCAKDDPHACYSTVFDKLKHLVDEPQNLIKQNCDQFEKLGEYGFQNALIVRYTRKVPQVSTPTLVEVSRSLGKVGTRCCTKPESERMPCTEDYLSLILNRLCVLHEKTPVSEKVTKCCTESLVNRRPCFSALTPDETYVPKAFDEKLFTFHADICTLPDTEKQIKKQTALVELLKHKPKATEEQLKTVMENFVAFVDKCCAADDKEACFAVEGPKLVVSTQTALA
molecule,measurement,setting,value
"Bovine serum albumin [BSA, reference compound]",TGF-β2 binding,TGF-β2,minimal TGF-β2 binding
same,TGF-β1 binding,TGF-β1 [1],minimal TGF-β1 binding except at very high ratios
same,TGF-β3 binding,TGF-β3,did not bind to TGF-β3 even at high ratios
"TGF-β1: TGF-β isoform, SEQ ID NO:64",α-SMA staining,[2],moderate α-SMA staining
same,"nodule-like cell aggregations/condensations, number","Rat-2 cells [3]; 100 pM TGF-β1 alone, 8-well chamber slides",< one
same,cell aggregation/density (H&E),"Rat-2 cells [3]; mono-treatment (200 nM FMOD or 100 pM TGF-β1), relative to controls",slightly increased the Rat-2 cell density
same,CTGF expression,"[4]; mono-treatment (200 nM FMOD or 100 pM TGF-β1), 48 h, FIGS. 21B, 21C",moderate CTGF expression
same,CTGF expression (green fluorescence),"[4]; mono-treatment, another set of similar studies, FIG. 24",increases expression of CTGF
B1,cell migration/invasion in Matrigel,Rat-2 cells [5],inhibited migration
same,binding result,[6],no binding
same,"cell migration, scratch",Rat-2 cells [7],inhibited migration
B2,binding with TGF-β1 in ELISA assay,TGF-β1 [8],able to bind with TGF-β1
